ChEMBL document CHEMBL1275354, “Anticonvulsant activity of 2,4(1H)-diarylimidazoles in mice and rats acute seizure models” (Bioorg Med Chem, 2010)
Calls of active or inactive are those of the source. The calls are words filed in the database; no cut-off is given here.

Experiments:
Mus musculus [1] = assay: Anticonvulsant activity against maximal electroshock-induced seizures in ip dosed albino CF1 mouse assessed as minimum effective dose after 4 hrs; assay type: functional; conditions: read-out: MED
Mus musculus [2] = assay: Anticonvulsant activity in albino CF1 mouse assessed as protection against maximal electroshock-induced seizures at 100 mg/kg, ip after 0.5 hrs; assay type: functional, organism-based; set-up: dose 100 mg/kg
Mus musculus [3] = assay: Anticonvulsant activity in albino CF1 mouse assessed as protection against subcutaneous metrazole-induced seizures at 300 mg/kg, ip after 0.5 hrs; assay type: functional, organism-based; set-up: dose 300 mg/kg
Rattus norvegicus [4] = assay: Anticonvulsant activity in albino Sprague-Dawley rat assessed as protection against maximal electroshock-induced seizures at 30 mg/kg, po after 2 hrs; assay type: functional, organism-based; set-up: dose 30 mg/kg
Mus musculus [5] = assay: Anticonvulsant activity against subcutaneous metrazole-induced seizures in ip dosed albino CF1 mouse assessed as minimum effective dose after 0.5 hrs; assay type: functional; conditions: albino CF1, 0.5 h, read-out: MED
Mus musculus [6] = assay: Anticonvulsant activity in albino CF1 mouse assessed as protection against subcutaneous metrazole-induced seizures at 30 mg/kg, ip after 4 hrs; assay type: functional, organism-based; set-up: dose 30 mg/kg
Rattus norvegicus [7] = assay: Neurotoxicity in albino Sprague-Dawley rat assessed as minimal motor impairment at 30 mg/kg, po by rotarod test; assay type: toxicity, organism-based; set-up: dose 30 mg/kg, route oral; conditions: in vivo
Mus musculus [8] = assay: Anticonvulsant activity in albino CF1 mouse assessed as protection against maximal electroshock-induced seizures at 300 mg/kg, ip after 4 hrs; assay type: functional, organism-based; set-up: dose 300 mg/kg
Mus musculus [9] = assay: Anticonvulsant activity in albino CF1 mouse assessed as protection against subcutaneous metrazole-induced seizures at 300 mg/kg, ip after 4 hrs; assay type: functional, organism-based; set-up: dose 300 mg/kg
Rattus norvegicus [10] = assay: Anticonvulsant activity in albino Sprague-Dawley rat assessed as protection against maximal electroshock-induced seizures at 30 mg/kg, po after 4 hrs; assay type: functional, organism-based; set-up: dose 30 mg/kg
Rattus norvegicus [11] = assay: Anticonvulsant activity in albino Sprague-Dawley rat assessed as protection against maximal electroshock-induced seizures at 30 mg/kg, po after 0.5 hrs; assay type: functional, organism-based; set-up: dose 30 mg/kg
Rattus norvegicus [12] = assay: Anticonvulsant activity in albino Sprague-Dawley rat assessed as protection against maximal electroshock-induced seizures at 30 mg/kg, po after 1 hr; assay type: functional, organism-based; set-up: dose 30 mg/kg
Mus musculus [13] = assay: Anticonvulsant activity in albino CF1 mouse assessed as protection against maximal electroshock-induced seizures at 30 mg/kg, ip after 0.5 hrs; assay type: functional, organism-based; set-up: dose 30 mg/kg
Mus musculus [14] = assay: Anticonvulsant activity in albino CF1 mouse assessed as protection against subcutaneous metrazole-induced seizures at 100 mg/kg, ip after 0.5 hrs; assay type: functional, organism-based; set-up: dose 100 mg/kg
Mus musculus [15] = assay: Anticonvulsant activity in albino CF1 mouse assessed as protection against maximal electroshock-induced seizures at 30 mg/kg, ip after 4 hrs; assay type: functional, organism-based; set-up: dose 30 mg/kg
Mus musculus [16] = assay: Anticonvulsant activity against maximal electroshock-induced seizures in ip dosed albino CF1 mouse assessed as minimum effective dose after 0.5 hrs; assay type: functional; conditions: read-out: MED
Mus musculus [17] = assay: Anticonvulsant activity in albino CF1 mouse assessed as protection against maximal electroshock-induced seizures at 300 mg/kg, ip after 0.5 hrs; assay type: functional, organism-based; set-up: dose 300 mg/kg
Mus musculus [18] = assay: Anticonvulsant activity against subcutaneous metrazole-induced seizures in ip dosed albino CF1 mouse assessed as minimum effective dose after 4 hrs; assay type: functional; conditions: albino CF1, 4 h, read-out: MED
Mus musculus [19] = assay: Neurotoxicity in ip dosed albino CF1 mouse assessed as minimum dose required to cause toxicity after 0.5 hrs by rotarod test; assay type: organism-based; conditions: in vivo
Mus musculus [20] = assay: Neurotoxicity in albino CF1 mouse assessed as minimal motor impairment at 30 mg/kg, ip after 4 hrs by rotarod test; assay type: toxicity, organism-based; set-up: dose 30 mg/kg, route intraperitoneal; conditions: in vivo
Rattus norvegicus [21] = assay: Anticonvulsant activity in albino Sprague-Dawley rat assessed as protection against maximal electroshock-induced seizures at 30 mg/kg, po after 0.25 hrs; assay type: functional, organism-based; set-up: dose 30 mg/kg
Mus musculus [22] = assay: Anticonvulsant activity in albino CF1 mouse assessed as protection against maximal electroshock-induced seizures at 100 mg/kg, ip after 4 hrs; assay type: functional, organism-based; set-up: dose 100 mg/kg
Mus musculus [23] = assay: Neurotoxicity in albino CF1 mouse assessed as minimal motor impairment at 30 mg/kg, ip after 0.5 hrs by rotarod test; assay type: toxicity, organism-based; set-up: dose 30 mg/kg, route intraperitoneal; conditions: in vivo
Mus musculus [24] = assay: Neurotoxicity in albino CF1 mouse assessed as minimal motor impairment at 100 mg/kg, ip after 4 hrs by rotarod test; assay type: toxicity, organism-based; set-up: dose 100 mg/kg, route intraperitoneal; conditions: in vivo
Mus musculus [25] = assay: Anticonvulsant activity in albino CF1 mouse assessed as protection against subcutaneous metrazole-induced seizures at 30 mg/kg, ip after 0.5 hrs; assay type: functional, organism-based; set-up: dose 30 mg/kg
Mus musculus [26] = assay: Neurotoxicity in ip dosed albino CF1 mouse assessed as minimum dose required to cause toxicity after 4 hrs by rotarod test; assay type: organism-based; conditions: in vivo
Mus musculus [27] = assay: Neurotoxicity in albino CF1 mouse assessed as minimal motor impairment at 30 to 300 mg/kg, ip after 0.5 hrs by rotarod test; conditions: in vivo
Mus musculus [28] = assay: Anticonvulsant activity in albino CF1 mouse assessed as protection against subcutaneous metrazole-induced seizures at 100 mg/kg, ip after 4 hrs; assay type: functional, organism-based; set-up: dose 100 mg/kg
Mus musculus [29] = assay: Neurotoxicity in albino CF1 mouse assessed as minimal motor impairment at 300 mg/kg, ip after 4 hrs by rotarod test; assay type: toxicity, organism-based; set-up: dose 300 mg/kg, route intraperitoneal; conditions: in vivo
Mus musculus [30] = assay: Neurotoxicity in albino CF1 mouse assessed as minimal motor impairment at 30 to 300 mg/kg, po after 4 hrs by rotarod test; assay type: toxicity, organism-based; set-up: dose 30-300 mg/kg, route oral; conditions: in vivo
Mus musculus [31] = assay: Neurotoxicity in albino CF1 mouse assessed as minimal motor impairment at 300 mg/kg, ip after 0.5 hrs by rotarod test; assay type: toxicity, organism-based; set-up: dose 300 mg/kg, route intraperitoneal; conditions: in vivo
Mus musculus [32] = assay: Neurotoxicity in albino CF1 mouse assessed as minimal motor impairment at 100 mg/kg, ip after 0.5 hrs by rotarod test; assay type: toxicity, organism-based; set-up: dose 100 mg/kg, route intraperitoneal; conditions: in vivo

Structure (SMILES)	minimal effective dose (Mus musculus [1]) [mg/kg]	Activity (Mus musculus [2])	Activity (Mus musculus [3])	minimal effective dose (Mus musculus [5]) [mg/kg]	Activity (Mus musculus [6])	Activity (Mus musculus [8])	Activity (Mus musculus [9])	Activity (Mus musculus [13])	Activity (Mus musculus [14])	Activity (Mus musculus [15])	minimal effective dose (Mus musculus [16]) [mg/kg]	Activity (Mus musculus [17])	minimal effective dose (Mus musculus [18]) [mg/kg]	MED (Mus musculus [19]) [mg/kg]	Activity (Mus musculus [20])	Activity (Mus musculus [23])	Activity (Mus musculus [24])	Activity (Mus musculus [25])	MED (Mus musculus [26]) [mg/kg]	Activity (Mus musculus [27])	also measured
c1ccc(-c2c[nH]c(-c3cccnc3)n2)cc1	100	Active	Active	100	inactive	Active	inactive	inactive	Active	inactive	100	Active	> 300	100	Non-toxic	Non-toxic	Non-toxic	inactive	100	Non-toxic	Activity (Rattus norvegicus [4]): inactive; Activity (Rattus norvegicus [7]): Non-toxic; Activity (Rattus norvegicus [10]): inactive; Activity (Rattus norvegicus [11]): inactive; Activity (Rattus norvegicus [12]): inactive; Activity (Rattus norvegicus [21]): inactive; Activity (Mus musculus [22]): inactive; Activity (Mus musculus [28]): inactive
FC(F)(F)c1cccc(-c2c[nH]c(-c3ccc(Cl)cc3)n2)c1	> 300	inactive	inactive	> 300	inactive	inactive	inactive	inactive	inactive	inactive	> 300	inactive	> 300	> 300	Non-toxic	Non-toxic	Non-toxic	inactive	> 300	Non-toxic	Activity (Mus musculus [29]): Non-toxic; Activity (Mus musculus [30]): Non-toxic; Activity (Mus musculus [31]): Non-toxic; Activity (Mus musculus [32]): Non-toxic; Activity (Mus musculus [22]): inactive; Activity (Mus musculus [28]): inactive
COc1cccc(-c2c[nH]c(-c3ccccc3)n2)c1	> 300	Active	inactive	> 300	inactive	inactive	inactive	inactive	inactive	inactive	> 30	Active	> 300	100	Non-toxic	Non-toxic	Non-toxic	inactive	> 300	Non-toxic	Activity (Mus musculus [29]): Non-toxic; Activity (Mus musculus [30]): Non-toxic; Activity (Rattus norvegicus [4]): inactive; Activity (Rattus norvegicus [7]): Non-toxic; Activity (Rattus norvegicus [10]): inactive; Activity (Rattus norvegicus [11]): inactive; Activity (Rattus norvegicus [12]): inactive; Activity (Rattus norvegicus [21]): inactive; Activity (Mus musculus [28]): inactive
Clc1ccc(-c2nc(-c3ccccc3)c[nH]2)cc1	> 300	inactive	inactive	> 300	inactive	inactive	inactive	inactive	inactive	inactive	> 300	inactive	> 300	> 300	Non-toxic	Non-toxic	Non-toxic	inactive	> 300	Non-toxic	Activity (Mus musculus [29]): Non-toxic; Activity (Mus musculus [30]): Non-toxic; Activity (Mus musculus [31]): Non-toxic; Activity (Mus musculus [32]): Non-toxic; Activity (Mus musculus [22]): inactive; Activity (Mus musculus [28]): inactive
O=[N+]([O-])c1ccc(-c2nc(-c3cccc(C(F)(F)F)c3)c[nH]2)cc1	100	inactive	inactive	> 300	inactive	Active	inactive	inactive	inactive	inactive	> 300	inactive	> 300	> 300	Non-toxic	Non-toxic	Non-toxic	inactive	> 300	Non-toxic	Activity (Mus musculus [29]): Non-toxic; Activity (Mus musculus [30]): Non-toxic; Activity (Mus musculus [31]): Non-toxic; Activity (Mus musculus [32]): Non-toxic; Activity (Mus musculus [22]): inactive; Activity (Mus musculus [28]): inactive
